The results in this text go back to patent US12116424B2, “Compounds and compositions for modulating Listeria virulence” (priority 2021, dated 2024).

SMILES strings stand for the structures. Where a SMILES comes first, the peptide text is derived from it. Bridges are numbered along the chain shown (N, C = ends). [ ]: non-standard residue; d: D form. dDap = NC[C@@H](N)C(=O)O; Dap = NC[C@H](N)C(=O)O

This experiment concerns the target L. monocytogenes AgrC (Listeria monocytogenes serovar 1/2a, UniProt Q8YAR5). Kind of experiment: Fluorescence (agr-GFP) reporter agonism assay, ΔagrD reporter strain. Also on record: Emax: dose or concentration left out as unconfirmed. Format: cell-based. Particulars: for Emax: read-out: Max Activation Observed; for agonism activity (in words): ΔagrD reporter; for loss in potency: agonism, relative to native AIP. From the text:
Construction of Listeria agr Reporter Strains. A gene block was designed and purchased from Integrated DNA Technologies to contain an EagI recognition site, the PII promoter of the agr system, the 3′ UTR of hly, super folder GFP, and a SaII recognition site. The gene block was digested with EagI and SaII, cloned into an EagI/SaII-cut pAM401 plasmid resulting in the plasmid pAM401-KW1, and then transformed into E. coli XL1-Blue competent cells. The insertion into pAM401 was confirmed using Kapa polymerase and primers DAP337 and DAP338, and additional confirmation via commercial sequencing. Purified plasmid was transformed into the conjugative E. coli S17 strain, which was used to conjugate to EGD-e and EGD-e ΔagrD to generate the agr-GFP reporter strains EGD-e:pAM401-KW1 and EGD-e ΔagrD:pAM401-KW1. Conjugation was verified using primers DAP337 and DAP338.
Fluorescence reporter assay protocol. For QS (agr) reporter assays, peptide stock solutions in DMSO (1 mM) were serially diluted in DMSO, and 2 μL of solution was added to each well in a black 96-well plate (polystyrene microtiter plate, Costar). Agonism assays utilized the ΔagrD reporter strain, with 2 μL of 100 μM AIP (final concentration 1 μM) as a positive control and 2 μL of DMSO as a negative control. Antagonism assays utilized the EGD-e reporter strain, with 2 μL of DMSO as a positive control. In both assays, wells containing only BHI media served as negative controls for normalization. An overnight culture of bacteria was diluted 1:50 in fresh BHI, then 198 μL were transferred to each well (excluding the media control wells). Plates were then incubated at 37° C. for 24 hours with shaking at 200 rpm. Fluorescence of GFP (excitation at 500 nm, emission at 540 nm) and OD600 of each well was measured using BioTek Synergy 2 plate reader. Measurements were processed by subtracting background fluorescence (BHI media), correcting by OD600, and the normalizing using the 1 μM AIP or the DMSO control for the agonism and antagonism assays, respectively. Non-linear regression curves were fitted to the data sets in GraphPad Prism 7 by using variable slope (four-parameter) dose-response analysis to obtain potency, efficacy, and statistical information about the activity of tested peptides. Each peptide was tested with three technical replicates and three biological replicates. All data derived from fluorescent reporter strains are represented with data points signifying the mean and error bars signifying the standard deviation from all replicates.
Preparation and Validation of Listeria agr Reporter Strains. In order to facilitate profiling the native AIP and its analogs for agr activity, L. monocytogenes agr GFP reporters were designed and constructed as described above (see Materials and General Methods). Briefly, a plasmid containing the agr promoter region upstream of gfp was transformed into wild-type (EGD-e) and ΔagrD L. monocytogenes strains. The wild-type reporter naturally produces its own AIP and is able to activate AgrC, which may subsequently phosphorylate AgrA for productive binding to DNA and triggering the production of GFP (FIG. 1A). The ΔagrD reporter, lacking the ability to produce its own AIP and thereby activate AgrC, is unable to trigger substantial production of GFP. However, adding exogenous AIP to the ΔagrD reporter results in an increase of fluorescence, indicating agr activity has been restored.

Sequence of L. monocytogenes AgrC (Q8YAR5 entry or part of it): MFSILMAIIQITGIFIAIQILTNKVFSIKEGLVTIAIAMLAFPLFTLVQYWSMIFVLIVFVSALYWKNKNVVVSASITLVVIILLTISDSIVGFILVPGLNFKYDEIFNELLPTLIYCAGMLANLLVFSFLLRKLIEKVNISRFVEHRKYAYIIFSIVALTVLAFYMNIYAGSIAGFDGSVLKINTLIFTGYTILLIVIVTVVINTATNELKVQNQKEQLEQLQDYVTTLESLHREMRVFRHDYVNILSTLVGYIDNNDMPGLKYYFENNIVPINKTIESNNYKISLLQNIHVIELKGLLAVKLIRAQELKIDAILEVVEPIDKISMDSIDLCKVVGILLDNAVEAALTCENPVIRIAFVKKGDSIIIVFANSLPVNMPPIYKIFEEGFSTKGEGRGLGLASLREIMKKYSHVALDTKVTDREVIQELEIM

Consider `CSCC[C@@H]1NC(=O)[C@H](Cc2ccccc2)NC(=O)[C@@H](NC(=O)[C@H](CCCCN)NC(=O)[C@@H](N)CCCCN)CSC(=O)[C@H](C(C)C)NC(=O)[C@H](Cc2ccccc2)NC1=O` [7-mer A2K, K-K-(C-F-M-F-V)] (H-KKCFMFV; thioester 3-C; N-terminus assumed), for which the Emax turned out to be 64.8%. As for `CSCC[C@@H]1NC(=O)[C@H](Cc2ccccc2)NC(=O)[C@H](NC(=O)[C@H](C)NC(=O)[C@@H](N)CCCCN)CSC(=O)[C@H](C(C)C)NC(=O)[C@H](Cc2ccccc2)NC1=O` [7-mer C3dC, K-A-(dC-F-M-F-V)] (H-KA[dC]FMFV; thioester 3-C; N-terminus assumed), the Emax is 7.08%.

On to `CSCC[C@H]1NC(=O)[C@H](Cc2ccccc2)NC(=O)[C@H](NC(=O)[C@H](C)NC(=O)[C@@H](N)CCCCN)CSC(=O)[C@H](C(C)C)NC(=O)[C@H](Cc2ccccc2)NC1=O` [7-mer C3dC/M5dM, K-A-(dC-F-dM-F-V)] (H-KA[dC]F[dM]FV; thioester 3-C; N-terminus assumed), for which the Emax was 7.89%.

As for `CSCC[C@H]1NC(=O)[C@H](Cc2ccccc2)NC(=O)[C@@H](NC(=O)[C@H](C)NC(=O)[C@@H](N)CCCCN)CSC(=O)[C@H](C(C)C)NC(=O)[C@H](Cc2ccccc2)NC1=O` [7-mer M5dM, K-A-(C-F-dM-F-V)] (H-KACF[dM]FV; thioester 3-C; N-terminus assumed), the Emax was found to be 71.9%. As for `CSCC[C@@H]1NC(=O)[C@H](Cc2ccccc2)NC(=O)[C@@H](NC(=O)[C@@H](N)CCCCN)CSC(=O)[C@H](C(C)C)NC(=O)[C@H](Cc2ccccc2)NC1=O` [AIP A1K, K-(C-F-M-F-V)] (H-KCFMFV; thioester 2-C; N-terminus assumed), the Emax is 80% and the “agonism activity (in words)” value is given as “partial agonists with slightly diminished agonistic activity”.

Consider `CSCC[C@@H]1NC(=O)[C@H](Cc2ccccc2)NC(=O)[C@H](NC(=O)[C@@H](N)CCCCN)CSC(=O)[C@H](C(C)C)NC(=O)[C@H](Cc2ccccc2)NC1=O` [AIP A1K/C2dC, K-(dC-F-M-F-V)] (H-K[dC]FMFV; thioester 2-C; N-terminus assumed), for which the Emax turned out to be 10.2%. On to `CSCC[C@H]1NC(=O)[C@H](Cc2ccccc2)NC(=O)[C@@H](NC(=O)[C@@H](N)CCCCN)CSC(=O)[C@H](C(C)C)NC(=O)[C@H](Cc2ccccc2)NC1=O` [AIP A1K/M4dM, K-(C-F-dM-F-V)] (H-KCF[dM]FV; thioester 2-C; N-terminus assumed), for which the Emax worked out at 74.1%.

As to `CSCC[C@@H]1NC(=O)[C@H](Cc2ccccc2)NC(=O)[C@@H](NC(=O)[C@@H]2CCCN2)CSC(=O)[C@H](C(C)C)NC(=O)[C@H](Cc2ccccc2)NC1=O` [AIP A1P, P-(C-F-M-F-V)] (H-PCFMFV; thioester 2-C; N-terminus assumed), the Emax came out at 76.8% and the “agonism activity (in words)” value is “partial agonists with slightly diminished agonistic activity”. On to `CSCC[C@@H]1NC(=O)[C@H](Cc2ccccc2)NC(=O)[C@@H](NC(=O)[C@@H](N)[C@@H](C)O)CSC(=O)[C@H](C(C)C)NC(=O)[C@H](Cc2ccccc2)NC1=O` [AIP A1T, T-(C-F-M-F-V)] (H-TCFMFV; thioester 2-C; N-terminus assumed), for which the Emax was 88.1% and the “agonism activity (in words)” value is recorded as “partial agonists with slightly diminished agonistic activity”. As to `CSCC[C@@H]1NC(=O)[C@H](Cc2ccccc2)NC(=O)[C@@H](NC(=O)[C@@H](N)C(C)C)CSC(=O)[C@H](C(C)C)NC(=O)[C@H](Cc2ccccc2)NC1=O` [AIP A1V, V-(C-F-M-F-V)] (H-VCFMFV; thioester 2-C; N-terminus assumed), the Emax worked out at 109% and the “agonism activity (in words)” value is on record as “maintained the full activity of the parent AIP with enhanced potency”. With `CSCC[C@@H]1NC(=O)[C@H](Cc2ccccc2)NC(=O)[C@@H](NC(=O)[C@@H](C)N)CSC(=O)[C@H](C(C)C)NC(=O)[C@H](Cc2ccccc2)NC1=O` [AIP A1dA, dA-(C-F-M-F-V)] (H-[dA]CFMFV; thioester 2-C; N-terminus assumed), the Emax was found to be 58.8%. As for `CSCC[C@@H]1NC(=O)[C@H](Cc2ccccc2)NC(=O)[C@@H](NC(=O)[C@H](C)N)CNC(=O)[C@H](C(C)C)NC(=O)[C@H](Cc2ccccc2)NC1=O` [AIP C2Dap, A-(Dap-F-M-F-V)] (H-A[Dap]FMFV; lactam 2-C; N-terminus assumed), the loss in potency stood at 10 fold, the Emax was 92.9% and the “agonism activity (in words)” value is listed as “largely retains the activation activity of the native AIP”. Turning to `CSCC[C@@H]1NC(=O)[C@H](Cc2ccccc2)NC(=O)[C@H](NC(=O)[C@H](C)N)CSC(=O)[C@H](C(C)C)NC(=O)[C@H](Cc2ccccc2)NC1=O` [AIP C2dC, A-(dC-F-M-F-V)] (H-A[dC]FMFV; thioester 2-C; N-terminus assumed), the loss in potency entry is given as “three-fold”, the Emax is 41% and the “agonism activity (in words)” value is given as “lost a substantial amount of agonism activity”. On to `CSCC[C@H]1NC(=O)[C@H](Cc2ccccc2)NC(=O)[C@H](NC(=O)[C@H](C)N)CSC(=O)[C@H](C(C)C)NC(=O)[C@H](Cc2ccccc2)NC1=O` [AIP C2dC/M4dM, A-(dC-F-dM-F-V)] (H-A[dC]F[dM]FV; thioester 2-C; N-terminus assumed), for which the Emax came out at 35.7%. Take `CSCC[C@@H]1NC(=O)[C@H](Cc2ccccc2)NC(=O)[C@H](NC(=O)[C@H](C)N)CNC(=O)[C@H](C(C)C)NC(=O)[C@H](Cc2ccccc2)NC1=O` [AIP C2dDap, A-(Dap-F-M-F-V)] (H-A[dDap]FMFV; lactam 2-C; N-terminus assumed): the Emax came to 14.3% and the “agonism activity (in words)” value is “little or no agr activation”. As to `CSCC[C@@H]1NC(=O)[C@H](Cc2c[nH]cn2)NC(=O)[C@@H](NC(=O)[C@H](C)N)CSC(=O)[C@H](C(C)C)NC(=O)[C@H](Cc2ccccc2)NC1=O` [AIP F3H, A-(C-H-M-F-V)] (H-ACHMFV; thioester 2-C; N-terminus assumed), the Emax came to 12.4%. Take `CSCC[C@@H]1NC(=O)[C@H](CC(C)C)NC(=O)[C@@H](NC(=O)[C@H](C)N)CSC(=O)[C@H](C(C)C)NC(=O)[C@H](Cc2ccccc2)NC1=O` [AIP F3L, A-(C-L-M-F-V)] (H-ACLMFV; thioester 2-C; N-terminus assumed): the Emax amounted to 37.6%. As for `CSCC[C@@H]1NC(=O)[C@H](Cc2c[nH]c3ccccc23)NC(=O)[C@@H](NC(=O)[C@H](C)N)CSC(=O)[C@H](C(C)C)NC(=O)[C@H](Cc2ccccc2)NC1=O` [AIP F3W, A-(C-W-M-F-V)] (H-ACWMFV; thioester 2-C; N-terminus assumed), the Emax worked out at 60.6%. Consider `CSCC[C@@H]1NC(=O)[C@H](Cc2ccc(O)cc2)NC(=O)[C@@H](NC(=O)[C@H](C)N)CSC(=O)[C@H](C(C)C)NC(=O)[C@H](Cc2ccccc2)NC1=O` [AIP F3Y, A-(C-Y-M-F-V)] (H-ACYMFV; thioester 2-C; N-terminus assumed), for which the Emax came to 47.4%. Take `CSCC[C@@H]1NC(=O)[C@H](Cc2ccccc2)NC(=O)[C@@H](NC(=O)[C@H](C)N)CSC(=O)[C@H](C(C)C)NC(=O)[C@H](Cc2c[nH]cn2)NC1=O` [AIP F5H, A-(C-F-M-H-V)] (H-ACFMHV; thioester 2-C; N-terminus assumed): the Emax turned out to be 7.13%.

On to `CSCC[C@@H]1NC(=O)[C@H](Cc2ccccc2)NC(=O)[C@@H](NC(=O)[C@H](C)N)CSC(=O)[C@H](C(C)C)NC(=O)[C@H](CC(C)C)NC1=O` [AIP F5L, A-(C-F-M-L-V)] (H-ACFMLV; thioester 2-C; N-terminus assumed), for which the Emax turned out to be 64.8%. Turning to `CSCC[C@@H]1NC(=O)[C@H](Cc2ccccc2)NC(=O)[C@@H](NC(=O)[C@H](C)N)CSC(=O)[C@H](C(C)C)NC(=O)[C@H](Cc2c[nH]c3ccccc23)NC1=O` [AIP F5W, A-(C-F-M-W-V)] (H-ACFMWV; thioester 2-C; N-terminus assumed), the Emax came to 85.8%.
